Test results reported in patent publication US7335359B2, “Glycosylated specificity exchangers” (Tripep AB, priority 2003, dated 2008).

Test system: human Gal-alpha1,3-Gal-specific antibodies
Test: Glycosylated peptide competitive assay on Gal-BSA coated plates with human sera IB72 (FIG. 4)
Assay type: binding
Details: positive control, mixed with human sera IB72
Experimental: To further evaluate the ability of the glycosylated specificity exchangers to bind to a pathogen, a glycosylated peptide competitive assay was performed using the most reactive human sera (IB72). In brief, Gal-alpha1,3-Gal-labeled bovine serum albumin (Gal-BSA) was coated onto 96-well microplates in sodium carbonate buffer (pH: 9.6) at +4° C. overnight. Dilutions of human sera and dilutions of glyco-peptides (glycosylated HIV-specific ligand/receptor specificity exchangers or Gal-BSA) or non-glycosylated peptides (HIV-specific ligand/receptor specificity exchangers or BSA) were preincubated in phosphate-buffered saline (PBS) containing 1% bovine albumin, 2% goat serum and 0.05% Tween 20 at 37° C. for 1 h. The mixture was then added to the coated plates and incubated at 37° C. for 1 h, then washed 3 times with phosphate-buffered saline (PBS) containing 0.05% Tween 20 (pH: 7.4).
Bound antibodies were indicated with goat anti-human polyvalent Ig, conjugated with alkaline phosphatase. The plates were incubated and washed as described above. Plates were developed with phosphatase substrate at room temperature for 30 min, stopped with 1 M NaOH. Optical density (OD) at 405 nm/650 nm was determined to quantify the inhibition. […] Thus, specificity exchangers that bind Gal-alpha1,3-Gal-specific antibodies had been generated. […]

“Gal-alpha1,3-Gal-labeled bovine serum albumin [Gal-BSA]” was tested, and the “inhibition of human antibody binding to Gal-BSA” value was 100%.
